Test results from US7008954B1, “Th2 differentiation inhibitors” (Shionogi & Co., Ltd., priority 1999, dated 2006).

What was measured:
[1] = test system: differentiation from Th0 cells to Th2 cells; assay: Inhibitory effect on induction of differentiation from Th0 cells to Th2 cells (DNP-As immunized mice, popliteal lymph node, intracellular cytokine FACS); assay type: in vivo, BALB/c mice; conditions: for increase in the % Th2 / increase in the Th2/Th1 ratio: BALB/c mice immunized with DNP-As; for % Th1 / % Th2 / Th2/Th1: BALB/c mice immunized with DNP-As/Alum, popliteal lymph node 6 days after immunization, n = 3
Description: Experiment 1 Inhibitory Effect on Induction of Differentiation from Th0 Cells to Th2 Cells
In an experiment to induce the differentiation from Th0 cells to Th2 cells, 9 to 11 week-old female mice of BALB/cCrSlc purchased from Japan SLC, Inc. or of BALB/cAnNCrj purchased from Charles River Japan, Inc. were used.
In an experiment to induce the differentiation from Th0 cells to Th2 cells, a DNP-As (dinitrophenylated Ascaris protein (porcine ascarid extract protein)) was used as an antigen, 10 μg of which and 250 μg of Alum (aluminum hydroxide adjuvant) in physiological saline in the final volume of 50 μl was injected into the soles of the both hind legs of each mouse, whereby effecting immunization. In a negative control group, each animal was treated similarly by an injection of 50 μl of physiological saline. 6 Days after injection, two popliteal lymph nodes were removed from right and left knees, and passed through a metal mesh (200 mesh size) in Hanks' balanced salt solution (HBSS) to prepare a cell suspension. In the group treated with physiological saline, preparations from two animals were combined and subjected to the experiment because of a small cell number. A compound according to the invention was suspended in 0.5% methylcellulose (MC) and 0.1 ml per 20 g mouse was given orally every day over a period from the day of immunization through the 5th day. The immunized vehicle control group and the negative control group were treated with the same volume of 0.5% MC.
Cells prepared from popliteal lymph nodes of these mice were suspended at 1−2×10^6 cells/ml (1–2 ml) in an RPMI 1640 medium (containing 10% fetal bovine serum—FBS and 50 μM 2-mercaptoethanol) and supplemented with PMA (Phorbol 12-Myristate 13-Acetate) at the final concentration of 50 ng/ml and 250 ng/ml A23187 (Ca ionophore) and then incubated at 37° C. in the presence of 5% CO2. After incubating for 4 hours, Brefeldin A was added at the final concentration of 10 μg/ml and the mixture was incubated further for 2 hours. The cells were recovered and washed twice with a staining buffer (PBS containing 1% FBS and 0.1% sodium azide) and suspended in 100 μl of the staining buffer containing 5 μg/ml of Fc Block (rat anti-mouse CD 16/CD32 purified monoclonal antibody, Pharmingen) and incubated on ice for 5 minutes to block the non-specific adsorption of the labeled antibody, and then combined with an equal volume of a Cy-Chrome-labelled rat anti-mouse CD4 monoclonal antibody (Pharmingen) which had been 200-fold diluted with the staining buffer and incubated on ice for 30 minutes. After washing three times with the staining buffer, the cells were suspended in PBS and combined with an equal volume of a fixation solution (4% p-formaldehyde) and incubated at 4° C. overnight, whereby effecting the fixation. The fixed cells thus obtained were washed twice with the staining buffer and suspended in a permeabilazation buffer (PBS containing 1% FBS, 0.5% saponin and 0.1% sodium azide) and incubated on ice for 10 minutes, and then each cell sample was recovered as being divided into two equal portions. Each portion was suspended in 100 μl of the permeabilazation buffer containing 5 μg/ml Fc Block and incubated on ice for 5 minutes to block the non-specific adsorption of the labeled antibody into the cells. One portion was combined with each 100 μl of an FITC-labelled rat anti-mouse IFNγ monoclonal antibody (Pharmingen) and a PE-labeled rat anti-mouse IL-4 monoclonal antibody (Pharmingen) each had been 50-fold diluted with the permeabilazation buffer and incubated on ice for 30 minutes. The other portion, serving as a control representing the non-specific adsorption of the labeled antibody, was combined with each 100 μl of each control antibody at the same concentration, i.e., an FITC-labelled rat IgG1κ purified antibody (Pharmingen) and a PE-labeled rat IgG1κ purified antibody (Pharmingen) to effect the similar staining. […]

[2] = test system: differentiation from Th0 cells to Th1 cells; assay: Effect on induction of differentiation from Th0 cells to Th1 cells (mice immunized with non-viable Mycobacterium tuberculosis, popliteal lymph node, intracellular cytokine FACS); assay type: in vivo, C57BL/6 mice; conditions: for % Th1 / % Th2: C57BL/6N mice immunized with non-viable Mycobacterium tuberculosis, popliteal lymph node 6 days after immunization, n = 3; for effect on the increase in the % Th1: CD4 positive T cells, popliteal lymph node, C57BL/6 mice immunized with non-viable Mycobacterium tuberculosis
Description: In an experiment to induce the differentiation from Th0 cells to Th1 cells, 8 week-old female mice of C57BL/6NCrj purchased from Charles River Japan, Inc. were used.
On the other hand, in an experiment to induce the differentiation from Th0 cells to Th1 cells, a non-viable Mycobacterium tuberculosis H37RA (DIFCO) was suspended in physiological saline, and 125 μg/50 μl was used for immunization as described above. In the group treated with physiological saline, the preparations from 4 animals were combined and subjected to the experiment.
Cells prepared from popliteal lymph nodes of these mice were suspended at 1−2×10^6 cells/ml (1–2 ml) in an RPMI 1640 medium (containing 10% fetal bovine serum—FBS and 50 μM 2-mercaptoethanol) and supplemented with PMA (Phorbol 12-Myristate 13-Acetate) at the final concentration of 50 ng/ml and 250 ng/ml A23187 (Ca ionophore) and then incubated at 37° C. in the presence of 5% CO2. After incubating for 4 hours, Brefeldin A was added at the final concentration of 10 μg/ml and the mixture was incubated further for 2 hours. The cells were recovered and washed twice with a staining buffer (PBS containing 1% FBS and 0.1% sodium azide) and suspended in 100 μl of the staining buffer containing 5 μg/ml of Fc Block (rat anti-mouse CD 16/CD32 purified monoclonal antibody, Pharmingen) and incubated on ice for 5 minutes to block the non-specific adsorption of the labeled antibody, and then combined with an equal volume of a Cy-Chrome-labelled rat anti-mouse CD4 monoclonal antibody (Pharmingen) which had been 200-fold diluted with the staining buffer and incubated on ice for 30 minutes. After washing three times with the staining buffer, the cells were suspended in PBS and combined with an equal volume of a fixation solution (4% p-formaldehyde) and incubated at 4° C. overnight, whereby effecting the fixation. The fixed cells thus obtained were washed twice with the staining buffer and suspended in a permeabilazation buffer (PBS containing 1% FBS, 0.5% saponin and 0.1% sodium azide) and incubated on ice for 10 minutes, and then each cell sample was recovered as being divided into two equal portions. Each portion was suspended in 100 μl of the permeabilazation buffer containing 5 μg/ml Fc Block and incubated on ice for 5 minutes to block the non-specific adsorption of the labeled antibody into the cells. One portion was combined with each 100 μl of an FITC-labelled rat anti-mouse IFNγ monoclonal antibody (Pharmingen) and a PE-labeled rat anti-mouse IL-4 monoclonal antibody (Pharmingen) each had been 50-fold diluted with the permeabilazation buffer and incubated on ice for 30 minutes. The other portion, serving as a control representing the non-specific adsorption of the labeled antibody, was combined with each 100 μl of each control antibody at the same concentration, i.e., an FITC-labelled rat IgG1κ purified antibody (Pharmingen) and a PE-labeled rat IgG1κ purified antibody (Pharmingen) to effect the similar staining. After washing three times with the cell membrane permeation buffer and twice with the staining buffer, the cells were suspended in 500 μl of the staining buffer and transferred through a nylon mesh into a FACS analysis tube.
The significant difference was analyzed by Dunnett multiple comparison test and Student t test.

[3] = 2.5 mg/kg orally daily for 6 days
[4] = 10 mg/kg orally daily for 6 days
[5] = 40 mg/kg orally daily for 6 days
[6] = 40 mg/kg orally for consecutive 6 days after immunization, CD4 positive T cells, popliteal lymph node
[7] = 10 mg/kg orally for consecutive 6 days after immunization

SMILES	increase in the % Th2 ([1]; 10 mg/kg or higher)	increase in the Th2/Th1 ratio ([1]; 10 mg/kg or higher)	% Th1 [1, 3]	% Th2 [1, 3]	Th2/Th1 [1, 3]	% Th1 [1, 4]	% Th2 [1, 4]	Th2/Th1 [1, 4]	% Th1 [1, 5]	% Th2 [1, 5]	Th2/Th1 [1, 5]	% Th1 ([2]; 40 mg/kg)	% Th2 ([2]; 40 mg/kg)	effect on the increase in the % Th1 [2]	increase in the % Th2 [1, 6]	increase in the Th2/Th1 ratio [1, 6]	increase in the % Th2 [1, 7]	increase in the Th2/Th1 ratio [1, 7]	% Th1 ([2]; 10 mg/kg)	% Th2 ([2]; 10 mg/kg)
CC(C)=CCNc1ccc(-c2cc(C)c(-c3ccc(OCC=C(C)C)nc3)cc2C)c(F)c1 [Compound I-6]	significantly inhibited	significantly inhibited	0.70 ± 0.02%	1.41 ± 0.10%	2.03 ± 0.20	0.54 ± 0.05%	0.15 ± 0.01 %	0.29 ± 0.02	0.66 ± 0.02%	0.03 ± 0.03 %	0.04 ± 0.05	1.03 ± 0.10%	0.03 ± 0.02%	no effect						
CC(C)=CCNc1ccc(-c2cc(C)c(-c3cnc(OCC=C(C)C)nc3)cc2C)c(F)c1 [Compound I-55]									0.53 ± 0.05%	0.05 ± 0.02 %	0.09 ± 0.03				significantly inhibited	significantly inhibited				
COc1c(C)c(-c2ccc(NCC=C(C)C)cc2)c(C)c(C)c1-c1ccc(OCC=C(C)C)c(F)c1 [Compound I-80]									0.29 ± 0.03%	0.07 ± 0.03 %	0.27 ± 0.12	0.93 ± 0.11%	0.02 ± 0.04%	no effect	significantly inhibited	significantly inhibited				
COc1c(C)c(-c2ccc(OCC=C(C)C)c(F)c2)c(C)c(C)c1-c1ccc(NCC=C(C)C)cc1 [Compound I-89]						0.23 ± 0.02%	−0.04 ± 0.00 %	−0.19 ± 0.01						no effect			significantly inhibited	significantly inhibited	0.70 ± 0.20%	0.02 ± 0.06%
COc1c(C)c(-c2ccc(NCC=C(C)C)cc2)c(C)c(C)c1-c1ccc(OCC(F)(F)F)nc1 [Compound I-90]									0.40 ± 0.02%	0.08 ± 0.03 %	0.22 ± 0.09				significantly inhibited	significantly inhibited				
COc1c(C)c(-c2ccc(NCC=C(C)C)c(F)c2)c(OC)c(C)c1-c1ccc(NCC=C(C)C)nc1 [Compound I-102]									0.34 ± 0.09%	−0.01 ± 0.01 %	−0.05 ± 0.06	0.82 ± 0.16%	0.07 ± 0.04%	no effect	significantly inhibited	significantly inhibited				
CC(C)=CCNc1ccc(-c2cc(C)c(-c3cnc(OCC=C(C)C)nc3)cc2C)c(C)c1 [Compound I-132]									0.46 ± 0.07%	0.05 ± 0.02 %	0.12 ± 0.04				significantly inhibited	significantly inhibited				
COc1c(C)c(-c2ccc(OCC(C)C)c(O)c2)c(C)c(C)c1-c1ccc(NCC=C(C)C)cc1 [Compound I-133]									0.45 ± 0.03%	0.20 ± 0.05 %	0.45 ± 0.09				significantly inhibited	significantly inhibited				
